Laboratory results from patent US7332474B2, “Peptides and related compounds having thrombopoietic activity” (Amgen Inc., priority 2001, dated 2008).

Experiments:
[1] = molecular target: murine 32D cells transfected with a human mpl receptor (Homo sapiens, UniProt P40238)
Text: The murine 32D cell proliferation assay involves the use of murine 32D cells that have been transfected with a human mpl receptor.

hu-mpl = hu-mpl (Homo sapiens, UniProt P40238); details: ratio of KD of TMP1 to KD of peptide
c-mpl [2] = molecular target: T1, c-mpl (Homo sapiens, UniProt P40238); details: Cwirla et al., Science 276:1696-1699 (1997); cited from earlier work
T1 sequence (P40238 26-635): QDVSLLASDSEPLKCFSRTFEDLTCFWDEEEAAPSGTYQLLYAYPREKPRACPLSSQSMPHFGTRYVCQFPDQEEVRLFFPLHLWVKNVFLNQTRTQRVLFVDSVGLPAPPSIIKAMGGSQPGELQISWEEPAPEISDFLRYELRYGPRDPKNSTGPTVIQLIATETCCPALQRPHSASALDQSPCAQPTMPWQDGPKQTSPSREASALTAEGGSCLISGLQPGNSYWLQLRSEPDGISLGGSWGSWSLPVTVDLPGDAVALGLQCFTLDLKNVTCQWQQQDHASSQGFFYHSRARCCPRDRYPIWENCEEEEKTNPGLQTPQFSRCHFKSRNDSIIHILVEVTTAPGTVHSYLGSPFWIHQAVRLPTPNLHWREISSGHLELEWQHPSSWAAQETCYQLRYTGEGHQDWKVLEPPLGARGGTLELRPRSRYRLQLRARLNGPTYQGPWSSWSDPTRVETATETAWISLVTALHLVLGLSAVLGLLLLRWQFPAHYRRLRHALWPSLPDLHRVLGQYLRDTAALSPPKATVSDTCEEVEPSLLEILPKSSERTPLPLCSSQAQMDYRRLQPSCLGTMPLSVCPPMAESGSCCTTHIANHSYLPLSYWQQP

c-mpl [3] = molecular target: T1, c-mpl; details: Cwirla et al., Science 276:1696-1699 (1997); cited from earlier work; remark: listed apart in the source

| Sequence | Murine 32D Cell Proliferation Assay (relative to TMP1) [1] | Affinity relative to TMP1 (hu-mpl) | IC50 (c-mpl [2]) [nM] | EC50 (c-mpl [3]) [nM] |
| --- | --- | --- | --- | --- |
| QGCSWGGPTLKQWLQCVRAKHS [TMP23] | Not Detectable | >54 |  |  |
| SAQGIEGPTLRQWLAARALETV [TMP1, reference compound] | 100% |  |  |  |
| IEGPTLRQWLAARA [TPO mimetic peptide] |  |  | 2 | 400 |
| QGCSSGGPTLREWLQCRRMQHS [TMP22] | Not Detectable | >54 |  |  |
| QGALQEGPTLRQWLGWGQWGHS [TMP19] | 27% | 0.07 |  |  |
